Data taken from patent publication US3978071A, “Substituted phenylalkanoic acids and derivatives” (Yoshitomi Pharmaceutical Industries, Ltd., priority 1973, dated 1976).

Tests used:
[1] = test system: carrageenin edema of the hind paw; assay: Anti-inflammatory Action, Carrageenin Edema Method; format: in vivo, Donryu-strain male rats; conditions: Rattus norvegicus, po, rats, 1 hour before 1% carrageenin s.c.; paw bulk 2 hours after phlogogen; dose required for 50% inhibition
Experimental: i. Carrageenin Edema Method
According to the method of Winter et al. (Proc. Soc. Exptl. Biol. Med., 111, 544 (1962)), to one group of 5 Donryu-strain male rats each weighing about 130 g a test solution containing a test compound was administered orally. One hour later 0.05 ml of 1% carrageenin solution as phlogogenic substance was subcutaneously injected to the paw of the hind leg. And 2 hours after the administration of phlogogen the bulk of the paw was measured in order to obtain the increment percentage over that before administration. The ratio of bulk increment between a control group and a test group was calculated as inhibition percentage. The ED50, the dose required for 50% inhibition, was calculated from the dose-response curve.

ultraviolet erythema = assay: Anti-inflammatory Action, Ultraviolet Erythema Method; format: in vivo; conditions: Cavia porcellus, light or radiation study, po, guinea pigs, equal amounts 1 hour before and after irradiation; total dose required for 50% efficacy rate
From the text: ii. Ultraviolet Erythema Method:
Using guinea pigs weighing 250-450 g, a rubber plate with 3 holes of 7 mm in diameter was fitted to the abdomen, hair of which had been removed in advance, and light was given by a mercury lamp (300 W) at the distance of 15 cm for 150 seconds. Two hours later the degree of erythema formation was marked according to the method of Winder et al. (Arch. Intern. Pharmacodyn., 116, 261 (1958); 1 for distinct erythema, 0.5 for indistinct erythema and 0 for no erythema) and the efficacy rate was calculated, based on the criterion that 1.5 or less of total marks be effective. Equal amounts of the test solution were orally given 1 hour before and after the irradiation, respectively. The ED50, the total dose required for 50% efficacy rate, was calculated from the dose-response curve.

[2] = test system: o-phenyl-p-benzoquinone induced stretch symptoms; assay: Analgesic Action (Phenylquinone Method); format: in vivo, dd-strain male mice; conditions: Mus musculus, po, mice, 1 hour before 0.02% o-phenyl-p-benzoquinone i.p., dose required for 50% inhibition of stretch symptoms (30 minutes)
Experimental: According to the method of Hendershot et al. (J. Pharmacol. Exptl. Therap., 125, 237 (1959)), to one group of 6 dd-strain male mice each weighing about 20 g a test solution containing a test compound was orally administered and 1 hour later 0.2 ml/20 g of body weight of 0.02% o-phenyl-p-benzoquinone solution was intraperitoneally injected. The frequency of stretch symptoms thus induced was measured for 30 minutes, and compared with that of a control group, and the inhibition percentage (effect) was calculated. The ED50 the dose required for 50% inhibition, was calculated from the dose-response curve.

Compound | ED50 [1] | ED50 (ultraviolet erythema) | ED50 [2]
CC(C(=O)O)c1ccc(-c2cn3ccccc3n2)cc1 (stereo not drawn) [A, 2-[4-(imidazo[1,2-a]pyridin-2-yl)phenyl]propionic acid] | 8 mg/kg | 6 mg/kg | 0.1 mg/kg
CC(C(=O)O)c1ccc(-c2cn3ccccc3n2)c(F)c1 (stereo not drawn) [C, 2-[3-fluoro-4-(imidazo[1,2-a]pyridin-2-yl)phenyl]propionic acid] | 25 mg/kg | 2.5 mg/kg | 0.1 mg/kg
CC(C(=O)O)c1ccc(-c2cn3ccsc3n2)cc1 (stereo not drawn) [D, 2-[4-(imidazo[2,1-b]thiazol-6-yl)phenyl]propionic acid] | 50 mg/kg | 2.5 mg/kg | 13 mg/kg
CC(C(=O)O)c1ccc(-c2cn3ccccc3n2)c(Cl)c1 (stereo not drawn) [B, 2-[3-chloro-4-(imidazo[1,2-a]pyridin-2-yl)phenyl]propionic acid] | 25 mg/kg | 1 mg/kg | 0.2 mg/kg
CC(C(=O)O)c1ccc(-c2cn3ccsc3n2)c(Cl)c1 (stereo not drawn) [E, 2-[3-chloro-4-(imidazo[2,1-b]thiazol-6-yl)phenyl]propionic acid] | 100 mg/kg | 5 mg/kg | 0.5 to 1 mg/kg
